{"source": "patent US20140363871A1", "about": "“PROCESS FOR OBTAINING COPPER NANOPARTICLES FROM A FUNGUS SELECTED BETWEEN HYPOCREA LIXII AND TRICHODERMA KONINGIOPSIS AND USE OF FUNGI SELECTED BETWEEN HYPOCREA LIXII AND TRICHODERMA KONINGIOPSIS IN BIOREMEDIATION OF WASTEWATER AND PRODUCTION OF COPPER NANOPARTICLES” (VALE S.A., priority 2013, published 2014)", "key": {"T. koningiopsis": {"test_system": "T. koningiopsis", "experiment": "Minimum inhibitory concentration in agar medium (spot plate method)", "assay_type": "cell-based, Trichoderma koningiopsis", "settings": "T. koningiopsis on SDA plates with copper 50-2000 mg L^−1, 25° C., at least 5 days", "procedure": "(§1) Copper tolerance of the isolated fungus was determined as the minimum inhibitory concentration (MIC) by the spot plate method [Ahmad I, Ansari M I, Aqil F (2006) Biosorption of Ni, Cr and Cd by metal tolerante Aspergillus niger and Penicillium sp using single and multi-metal solution. Indian J Exp Biol 44: 73-76]. SDA plates containing different concentrations of copper (50 to 2000 mg L^−1) were prepared and inocula of the tested fungus were spotted onto the metal and control plates (plate without metal). The plates were incubated at 25° C. for at least 5 days. The MIC is defined as the lowest concentration of metal that inhibits visible growth of the isolate."}, "H. lixii": {"test_system": "H. lixii", "experiment": "Minimum inhibitory concentration in agar medium (spot plate method)", "assay_type": "cell-based, Hypocrea lixii", "settings": "H. lixii on SDA plates with copper 50-2000 mg L^−1, 25° C., at least 5 days", "procedure": "as §1"}}}
{"smiles": "O.O.[Cl][Cu][Cl]", "note": "[copper, CuCl2.2H2O]", "values": [{"measurement": "minimum inhibitory concentration (MIC), tolerance to copper", "setting": "T. koningiopsis", "result": 1057, "unit": "µg/mL"}, {"measurement": "minimum inhibitory concentration (MIC), tolerance to copper", "setting": "H. lixii", "result": 528, "unit": "µg/mL"}]}
